# Tests used:
# LD50 in rats = conditions: rat, in vivo
# [1] = test system: Compound 48/80 Induced Anaphylactoid Reaction; test: Anaphylactoid activity: inhibition of compound 48/80 induced anaphylactoid reaction in rats; assay type: in vivo, Wister rats; conditions: Rattus norvegicus, po, dosed 2 hours before compound 48/80 (2 mg/kg i.v.), propranolol 5 mg/kg i.p., at least 50 animals, read-out: ED50, dose providing 50% protection against death induced by compound 48/80
# Protocol: Non-fasted, Wister rats (180-300 g) were dosed with the test compound (i.p. or p.o.) 2 hours before compound 48/80 challenge. One hour prior to challenge, 5 mg/kg i.p. of propranolol was administered. The anaphylactoid inducing agent, compound 48/80 which is well known in the art of pharmacology, was given intravenously at 2 mg/kg and the animals were monitored for symptoms of respiratory distress.
# Data were analyzed by Probit determinations. The response was quantitated by determining the dose of test compound which protected 50% of the animals from death at a given time point.
# Agents which block the effects of compound 48/80 are commonly classified as inhibitors of anaphylactic mediators or inhibitors of the release of anaphylic mediators.
# histamine = test: In vivo antihistaminic activity: protection of guinea pigs against histamine aerosol challenge; design: species or system Guinea pigs (Hartley, male)
SMILES,LD50 (LD50 in rats; ip) [mg/kg],LD50 (LD50 in rats; po) [mg/kg],ED50 [1] [mg/kg],"ED50 (histamine; Cavia porcellus, po, 4 hr post dosing, guinea pigs, 0.25% histamine aerosol, at least 40 animals) [mg/kg]",antihistaminic activity in vivo (histamine; in words),duration of antihistaminic activity (histamine; in words)
"CN(C)CC/C=C1/c2ccccc2COc2ccc(C(=O)O)cc21 [Compound 1, (Z)-11-(3-(Dimethylamino)propylidene)-6,11-dihydrodibenz[b,e]oxepin-2-carboxylic acid]",~210,> 500,1.1,0.15,extremely good antihistaminic activity in vivo,very long durations of antihistamic activity
"CN(C)CCC=C1c2ccccc2COc2ccccc21 [Doxepin, 11-(3-(dimethylamino)propylidene)-6,11-dihydrodibenz[b,e]oxepin]",,,0.15,,,
Cc1ccc(/C(=C\CN2CCCC2)c2ccccn2)cc1 [Triprolidine],,,> 30,,,

# — patent US4923892A, “Tricyclic aromatic compounds” (Burroughs Wellcome Co., priority 1985, dated 1990)
